Measured values from PubChem BioAssay (NCI).
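Interpolation was linear, between the two tested concentrations surrounding the appropriate level; five concentrations were tested over 48 hours in 96-well plates. GI50 is the concentration that inhibits growth by half. TGI: concentration producing complete growth inhibition.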

Assays:
Assay in all cases: inhibition of tumour cell growth, NCI panel, 48 h
OVCAR-5 ovarian = tested on: OVCAR-5 ovarian
SF-295 CNS = tested on: SF-295 CNS
HL-60(TB) leukemia = tested on: HL-60(TB) leukemia
786-0 renal = tested on: 786-0 renal
M14 melanoma = tested on: M14 melanoma
SNB-75 CNS = tested on: SNB-75 CNS
KM12 colon = tested on: KM12 colon
HCC-2998 colon = tested on: HCC-2998 colon

Structure (SMILES)	TGI (OVCAR-5 ovarian) [µM]	TGI (SF-295 CNS) [µM]	TGI (HL-60(TB) leukemia) [µM]	TGI (786-0 renal) [µM]	TGI (M14 melanoma) [µM]	TGI (SNB-75 CNS) [µM]	TGI (KM12 colon) [µM]	TGI (HCC-2998 colon) [µM]	GI50 (OVCAR-5 ovarian) [µM]	GI50 (SF-295 CNS) [µM]	GI50 (HL-60(TB) leukemia) [µM]	GI50 (786-0 renal) [µM]	GI50 (M14 melanoma) [µM]	GI50 (SNB-75 CNS) [µM]	GI50 (KM12 colon) [µM]	GI50 (HCC-2998 colon) [µM]
CCN1CCCCCCCCCC(=N/O)/C(=N\O)C1	> 100	> 100	> 100	> 100	> 100	> 100	> 100									
Cc1[nH]c(N)nc(=S)c1CCCNc1ccccc1	> 100	> 100	> 100	> 100	> 100	> 100	> 100									
COC(=O)C1C(=O)C(C(=O)OC)C2CCC1N2C (configuration not stated)	> 100	> 100	> 65.8	> 100	> 100	> 100	> 100	> 100								
Cc1cc(NS(=O)(=O)c2ccc(-c3cnc(C4CC4)o3)cc2)ccc1Cl	15	2.57	1.23	17.8	15.9	0.643	13.4	11.7	0.748	0.0995	0.232	0.605	0.192	0.12	0.187	1.23
CC(=O)CCC[C@@H](C)[C@@H]1O[C@H]([C@@]2(C)CCC(=O)O2)CC2[C@H]1OC(=O)C21CC1 (some centres not stated)	> 100	> 100	> 100	> 100		> 100	> 100	> 100	> 100	61.6	> 100	> 100		> 100	> 100	77.2
C=C(CC)C(=O)c1ccc(OCC(=O)O)c(Cl)c1Cl	> 62.6	> 100	> 85	19.7	45	50	21.4	35.4								
c1ccc(C2=Nc3ccccc3N3CNN=C23)cc1	> 100	> 100		> 100	> 100	86.6	> 100	> 100	> 100	> 100		> 100	> 100	25.8	> 100	> 100
C=C1CC[C@@](C)(c2cc(Br)c(C)cc2OC(C)=O)[C@H]1C	28.7	23.2	28.2	25.4	30.6		21.1		15.1	10.7	11.9	12.6	15.9		6.38	
Cc1ccc2c(-c3ccnc(Nc4cccc(C(F)(F)F)c4)n3)c(-c3ccccc3)nn2n1	24.6	> 25		> 15.1	> 17.2	> 25	> 18.3	16.1	10.2	> 13.4		4.67	10.5	3.87	11.1	5.99
NC(=O)NC(=O)Nc1ccc(Br)cc1	> 100	> 100	> 6.62	> 100	> 45.1		> 32.8	> 31.9								
